Reference: patent US9049863B2, “Substituted (3R,4R)-4-cyan-3,4-diphenylbutanoates, method for the production thereof and use thereof as herbicides and plant growth regulators” (Bayer Intellectual Property GmbH, priority 2011, dated 2015)

Tests used:
Assay type in all cases: in vivo
Amaranthus retroflexus = assay: Herbicidal action and crop plant compatibility, pre-emergence (3.2); settings: 80 g/ha, about 4 weeks
Description: (§1) 3.2 In further trials in the greenhouse, seeds of crop plants and seeds of harmful plants are placed in pots in sandy loam soil, covered with earth and cultivated under good growth conditions. The compounds (I) according to the invention, formulated in the form of wettable powders (WP), are then applied as aqueous suspension or emulsion at a water application rate of 300 l/ha (converted) with the addition of 0.2% of wetting agent to the surface of the covering soil. After the test plants have been kept in the greenhouse under optimum growth conditions for about 4 weeks, the activity of the preparations is rated visually in comparison to untreated controls in percent (%): For example, 100% activity=the plants have died, 50% herbicidal activity or damage=the plants have been reduced by 50% or the plant mass has been reduced by 50%, 0% activity=like control plants.

Echinochloa crus-galli [1] = assay: as above; settings: 80 g/ha, about 4 weeks
Description: as §1

Polygonum convolvulus [2] = assay: as above; settings: 80 g/ha, about 4 weeks
Description: as §1

Veronica persica [3] = assay: as above; settings: 80 g/ha, about 4 weeks
Description: as §1

Viola tricolor [4] = assay: as above; settings: 80 g/ha, about 4 weeks
Description: as §1

Alopecurus myosuroides = assay: as above; settings: 80 g/ha, about 4 weeks
Description: as §1

Avena fatua [5] = assay: as above; settings: 80 g/ha, about 4 weeks
Description: as §1

Setaria viridis [6] = assay: as above; settings: 80 g/ha, about 4 weeks
Description: as §1

Lolium multiflorum = assay: as above; settings: 80 g/ha, about 4 weeks
Description: as §1

[7] = tested on: a plurality of harmful plants; assay: Herbicidal pre-emergence action; settings: 320 g or less of active substance per hectare
Description: Seeds of monocotyledonous and dicotyledonous weed plants and crop plants are placed in wood-fiber pots in sandy loam and covered with soil. The compounds (I) according to the invention, formulated in the form of wettable powders (WP), are then applied as aqueous suspension or emulsion at a water application rate of 600 l/ha (converted) with the addition of 0.2% of wetting agent to the surface of the covering soil.
After the treatment, the pots are placed in a greenhouse and kept under good growth conditions for the test plants. After about 3 weeks, the effect of the preparations is scored visually in comparison with untreated controls as percentages. For example, 100% activity=the plants have died, 50% herbicidal activity or damage=the plants have been reduced by 50% or the plant mass has been reduced by 50%, 0% activity=like control plants.

wheat = assay: Herbicidal action and crop plant compatibility, post-emergence (3.3); settings: 80 g/ha, 4 weeks after the treatment
Description: (§2) 3.3 In further trials in the greenhouse, seeds of crop plants and seeds of harmful plants are placed in pots in sandy loam soil, covered with earth and cultivated under good growth conditions. The test plants are treated at the 2-3-leaf stage, where the compounds (I) according to the invention, formulated in the form of wettable powders (WP), are applied by spraying as aqueous suspension or emulsion at a water application rate of […] (converted) with the addition of 0.2% of wetting agent to the green parts of the plants. 4 weeks after the treatment and after the test plants have been kept in the greenhouse under optimum growth conditions, the activity of the preparations is rated visually in comparison to untreated controls in percent (%): For example, 100% activity=the plants have died, 50% herbicidal activity or damage=the plants have been reduced by 50% or the plant mass has been reduced by 50%, 0% activity=like control plants.

Echinochloa crus-galli [8] = assay: as above; settings: 80 g/ha, 4 weeks after the treatment
Description: as §2

Polygonum convolvulus [9] = assay: as above; settings: 80 g/ha, 4 weeks after the treatment
Description: as §2

Veronica persica [10] = assay: as above; settings: 80 g/ha, 4 weeks after the treatment
Description: as §2

Viola tricolor [11] = assay: as above; settings: 80 g/ha, 4 weeks after the treatment
Description: as §2

oilseed rape = assay: as above; settings: 80 g/ha, 4 weeks after the treatment
Description: as §2

Avena fatua [12] = assay: as above; settings: 80 g/ha, 4 weeks after the treatment
Description: as §2

Setaria viridis [13] = assay: as above; settings: 80 g/ha, 4 weeks after the treatment
Description: as §2

COC(=O)C[C@@H](c1ccc(Cl)cc1)[C@@H](C#N)c1cccc(F)c1 [Example 1, methyl (3R,4R)-3-(4-chlorophenyl)-4-cyano-4-(3-fluorophenyl)butanoate]
herbicidal activity against Amaranthus retroflexus (Amaranthus retroflexus): 80 to 100% | herbicidal activity against Echinochloa crus-galli (Echinochloa crus-galli [1]): 80 to 100% | herbicidal activity against Polygonum convolvulus (Polygonum convolvulus [2]): 80 to 100% | herbicidal activity against Veronica persica (Veronica persica [3]): 80 to 100% | herbicidal activity against Viola tricolor (Viola tricolor [4]): 80 to 100% | herbicidal activity against Alopecurus myosuroides (Alopecurus myosuroides): 80 to 100% | herbicidal activity against Avena fatua (Avena fatua [5]): 80 to 100% | herbicidal activity against Setaria viridis (Setaria viridis [6]): 80 to 100% | herbicidal activity against Lolium multiflorum (Lolium multiflorum): 80 to 100% | herbicidal activity against a plurality of harmful plants [7]: good herbicidal activity

CCCCOC(=O)C[C@@H](c1cccc(F)c1)[C@@H](C#N)c1ccc(F)c(F)c1 [Example 86]
herbicidal activity against a plurality of harmful plants [7]: good herbicidal activity | selectivity in wheat (damage) (wheat): up to 10% | herbicidal activity against Echinochloa crus-galli (Echinochloa crus-galli [8]): 80% | herbicidal activity against Polygonum convolvulus (Polygonum convolvulus [9]): 80% | herbicidal activity against Veronica persica (Veronica persica [10]): 70% | herbicidal activity against Viola tricolor (Viola tricolor [11]): 80% | selectivity in oilseed rape (damage) (oilseed rape): 0% | herbicidal activity against Avena fatua (Avena fatua [12]): 90% | herbicidal activity against Setaria virides (Setaria viridis [13]): 80%

COC(=O)C[C@@H](c1cc(F)ccc1F)[C@@H](C#N)c1ccc(Cl)c(Cl)c1 [Example 208]
herbicidal activity against a plurality of harmful plants [7]: good herbicidal activity

COC(=O)C[C@@H](c1c(F)cccc1F)[C@@H](C#N)c1ccc(F)c(Cl)c1 [Example 227]
herbicidal activity against a plurality of harmful plants [7]: good herbicidal activity

CCOC(=O)C[C@@H](c1c(F)cccc1F)[C@@H](C#N)c1ccc(F)c(F)c1 [Example 283]
herbicidal activity against a plurality of harmful plants [7]: good herbicidal activity

COC(=O)C[C@@H](c1cccc(Cl)c1)[C@@H](C#N)c1cccc(C#N)c1 [Example 326]
herbicidal activity against a plurality of harmful plants [7]: good herbicidal activity

COC(=O)C[C@@H](c1ccc(Cl)cc1)[C@@H](C#N)c1cccc(C#N)c1 [Example 329]
herbicidal activity against a plurality of harmful plants [7]: good herbicidal activity

COC(=O)C[C@@H](c1cc(F)ccc1F)[C@@H](C#N)c1cccc(C#N)c1 [Example 330]
herbicidal activity against a plurality of harmful plants [7]: good herbicidal activity

COC(=O)C[C@@H](c1cccc(F)c1)[C@@H](C#N)c1ccc(F)c(C#N)c1 [Example 339]
herbicidal activity against a plurality of harmful plants [7]: good herbicidal activity

COC(=O)C[C@@H](c1cccc(Cl)c1)[C@@H](C#N)c1ccc(F)c(C#N)c1 [Example 340]
herbicidal activity against a plurality of harmful plants [7]: good herbicidal activity

COC(=O)C[C@@H](c1ccc(Cl)cc1)[C@@H](C#N)c1ccc(F)c(C#N)c1 [Example 343]
herbicidal activity against a plurality of harmful plants [7]: good herbicidal activity

COC(=O)C[C@@H](c1cc(F)ccc1F)[C@@H](C#N)c1ccc(F)c(C#N)c1 [Example 344]
herbicidal activity against a plurality of harmful plants [7]: good herbicidal activity

COC(=O)C[C@@H](c1cc(F)ccc1F)[C@@H](C#N)c1ccc(F)c(Br)c1 [Example 358]
herbicidal activity against a plurality of harmful plants [7]: good herbicidal activity

COC(=O)C[C@@H](c1c(F)cccc1F)[C@@H](C#N)c1ccc(F)c(Br)c1 [Example 359]
herbicidal activity against a plurality of harmful plants [7]: good herbicidal activity

COC(=O)C[C@@H](c1ccc(OC)c(F)c1)[C@@H](C#N)c1ccc(F)c(F)c1 [Example 390]
herbicidal activity against a plurality of harmful plants [7]: good herbicidal activity
